Data set [1] concerns human pancreatic cancer cell MiaPaca 2 xenograft. As to the kind of experiment: Tumor inhibition on MiaPaca 2 transplanted tumor (CDX) model. In kind it is in vivo, BALB/c nude mice. The note with it: for TGI (%) Day 21 / tumor volume (mm^3, Mean ± SD) Day 21 / ΔT/ΔC(%) Day 21: Day 21, 6 mg/kg QD×3 w oral; for tumor volume (mm^3, Mean ± SD) Day 0: baseline Day 0, 6 mg/kg QD×3 w oral. The protocol:
MiaPaca 2 cells were removed from the cell bank, revived and added to DMEM medium (containing 10% FBS, 1% Glu, 1% P/S) and incubated in a CO2 incubator (incubator temperature was 37° C., CO2 concentration was 5%). After the cells were spread to 80-90% of the bottom of the culture flask, the cells were continued to be cultured in the CO2 incubator. The process was repeated until the number of cells met the in vivo pharmacological inoculation requirement, and the cells in logarithmic growth period were collected and counted with an automatic cell counter, resuspended with PBS and Matrigel (volume ratio 1:1) according to the count results, made into a cell suspension (the density was 8×10^7/mL), and placed in an ice box for use.
BALB/c nude mice, female, 6-8 weeks old, weighing about 18-22 g. The mice were kept in an environment free of special pathogens and in a single ventilated cage with 5 mice in each cage. All cages, bedding and water were sterilized before use, and all animals had free access to standard certified commercial laboratory diets. Nude mice were labeled with disposable universal ear tags for mice and rats before the start of the experiment, and the skin of the inoculation site was disinfected with 75% medical alcohol before inoculation, 0.1 mL (containing 8*10^6 cells) of MiaPaca 2 tumor cells were inoculated subcutaneously on the right back of each mouse. When the tumor volume reached 100-200 mm^3, the group administration was started. The tested compounds were administered daily by oral intragastric administration, dosage/frequency (6 mg/kg QD×3 w), and the efficacy of each group at the end of the experiment was shown in Table 29.
The tumor volume (mm^3) was measured with vernier caliper twice a week, the calculation formula was V=[…], wherein D and d were the long and short diameter of the tumor, respectively. The anti-tumor efficacy was determined by dividing the average tumor increased volume of the compound-treated animals by the average tumor increased volume of the untreated animals. The formula of tumor inhibition rate is: TGI (%)=1−[(Vt−V0) administration group/(Vt−V0) solvent control group]*100%. After the experiment, all animals were euthanized.

Data set [2] is described as follows: Plasma stability, dog plasma. In kind it is in vitro ADME. To be noted: for Residual rate (%) 0 min / Residual rate (%) 15 min / Residual rate (%) 30 min / Residual rate (%) 60 min / Residual rate (%) 120 min: dog plasma, 37° C.; for half-life at 0.5 μM: dog, plasma. How it is done: Animal or human whole blood was collected, then the blood was put into a test tube containing anticoagulant, centrifuged at 3500 rpm for 10 min, and the upper layer of pale yellow plasma was collected. • 2), 10 μM of tested compound (m/M/V=C)
The compound was weighed, the stock solution was prepared with DMSO and the working solution was prepared with 100 mM phosphate buffer. • 3), 10 μM of positive control (1) Propantheline (Propantheline Mr=449.4 Da)
• 1) 285 μL of plasma and 15 μL of 10 μM compound (tested compound) were added in turn in a 96-well plate, and incubated at 37° C. • 2) 40 μL was taken out at 0, 15, 30, 60, 90, 120 min, respectively, and 160 μL of acetonitrile termination solution containing internal standard was added. • 3) After centrifugation (3500 rpm, 10 min), 50 μL of supernatant was taken out, and then diluted with 50 μL DDH2O and injected to LC-MS/MS.
• Instrument: Shimadzu LC-20 AD • Chromatographic column: phenomenex Gemiu® C18 (50*4.6 mm, 5 μM particle size); • mobile phase: A: acetonitrile, B: 0.1% formic acid solution […], 2.0-2.1 min: 90% A→5% A; flow rate: 0.8 mL/min; running time: 5.0 min; injection volume: 5 μL.
• Instrument: API4000 Liquid Chromatography-Mass Spectrometry, AB, USA; • the ion source was electrospray ionization source (ESI); • the temperature of dry gas (N2) was 500° C.; • electrospray voltage was 5500V; • the detection method was positive ion detection; • the scanning mode was selective response monitoring (MRM). • the scanning time was 0.1 s.

Data set [3] in a line: Pharmacokinetics in MiaPaca 2 tumor-bearing mice (plasma, tumor). In kind it is in vivo. The note with it: female, mouse, po, 6 mg/kg p.o. How it is done:
The pharmacokinetic behavior of embodiment compound 165 and AMG-510 compound, administered orally at a dose of 6 mg/kg, in mice (plasma, tumor tissue and intestine) was studied using MiaPaca 2 tumor-bearing mice as test animals.
24 MiaPaca 2 tumor-bearing mice, females. 3 for each time point (0 h, 1 h, 2 h, 4 h, 6 h, 8 h, 16 h, 24 h). Shanghai xipuer-bikai Laboratory Animal Co., Ltd, Animal Production License No. (SCXK (Shanghai) 2018-0006.
Embodiment compound 165-1 and compound AMG-510 were weighed and dissolved in the solution, the mixture was shaken well, and ultrasound was performed for 15 minutes to obtain a uniform suspension with a concentration of 0.6 mg/mL.
MiaPaca 2 tumor-bearing mice were administered at a dose of 6 mg/kg in a volume of 10 mL/kg, respectively, based on body weight p.o. after fasting (animals were not administered at point 0 h).
Before and after administration, mice were sacrificed with CO2, 0.5 mL blood was collected from the heart and placed in EDTA-2K tube, centrifuged at 4° C. […] The duodenum, ileum and colon tissues were cut with scissors, the contents were removed and cleaned twice with PBS, after absorbing water with absorbent paper, they were weighed, placed in a 2 mL centrifuge tube and stored at −80° C.

The term MRT denotes the average time that molecules of a dose stay in the body.

Read-outs that look alike come from different tables or passages of the source.

`C=CC(=O)N1C[C@H](C)N(c2nc(=O)n(-c3c(SC)ccnc3C(C)C)c3nc(-c4c(O)cccc4F)c(F)cc23)C[C@H]1C` (single isomer, unassigned) [Embodiment 114-1]: in data set [1], the “TGI (%) Day 21” value was determined as 162.36%; the “tumor volume (mm^3, Mean ± SD) Day 21” value is given as 67 ± 34 mm^3; the “ΔT/ΔC(%) Day 21” value was −62.36%; the “tumor volume (mm^3, Mean ± SD) Day 0” value was found to be 177 ± 38 mm^3.

In the case of `C=CC(=O)N1C[C@H](C)N(c2nc(=O)n(-c3c(SC)ccnc3C(C)C)c3nc(-c4c(N)ccc(Cl)c4F)c(Cl)cc23)C[C@H]1C` (single isomer, unassigned) [Embodiment 165-1], in data set [1], the “TGI (%) Day 21” value is on record as 176.76%; the “tumor volume (mm^3, Mean ± SD) Day 21” value is listed as 41 ± 19 mm^3; the “ΔT/ΔC(%) Day 21” value was −76.76%; the “tumor volume (mm^3, Mean ± SD) Day 0” value came out at 178 ± 34 mm^3. Also, in data set [2], the “Residual rate (%) 0 min” value came to 100.00%, the “Residual rate (%) 15 min” value came to 97.71%, the “Residual rate (%) 30 min” value is 96.32% and the “Residual rate (%) 60 min” value is on record as 94.86%. Besides, in data set [2], the “Residual rate (%) 120 min” value turned out to be 92.49% and the half-life at 0.5 μM was 19.6 h. Further, the Kp in data set [3] (exposure in tumor to exposure in plasma, read-out: Ratio (T/P)) was 0.57. Moreover, the MRT in data set [3] (plasma, read-out: MRT (hr) Plasma) was 0.9 h. Besides, the half-life in data set [3] (plasma, read-out: T1/2 (hr) Plasma (converted)) is 0.5 h. Further, the MRT in data set [3] (tumor, read-out: MRT (hr) Tumor) came to 1.5 h. The half-life in data set [3] (tumor, read-out: T1/2 (hr) Tumor (converted)) is 0.9 h.

With `C=CC(=O)N1C[C@H](C)N(c2nc(=O)n(-c3c(SC)ccnc3C(C)C)c3nc(-c4c(O)cccc4F)c(Cl)cc23)C[C@H]1C` (single isomer, unassigned) [Embodiment 166-1], in data set [2], the “Residual rate (%) 0 min” value was determined as 100.00%, the “Residual rate (%) 15 min” value stood at 99.98%, the “Residual rate (%) 30 min” value is listed as 98.79% and the “Residual rate (%) 60 min” value turned out to be 93.69%. In addition, in data set [2], the “Residual rate (%) 120 min” value was found to be 86.16% and the half-life at 0.5 μM worked out at 8.88 h.
